Assays:
[1] = molecular target: T1, hCB2R (Homo sapiens, UniProt P34972); assay: forskolin-stimulated cAMP assay; assay type: cell-based; details: for cAMP (CB2R) EC50/IC50 (nM): EC50: agonist mode, inhibition of forskolin (10 μM) mediated cAMP production
[2] = molecular target: h-CB2R (Homo sapiens, UniProt P34972); details: classification from β-arrestin 2 (and cAMP) assays
[3] = molecular target: T1, hCB2R; assay: CB2R competitive radioligand binding assay; details: selectivity ratio
[4] = solubility under the cAMP assay test conditions; assay type: physicochemical; details: functional cAMP assay conditions

T1 sequence (P34972 whole entry): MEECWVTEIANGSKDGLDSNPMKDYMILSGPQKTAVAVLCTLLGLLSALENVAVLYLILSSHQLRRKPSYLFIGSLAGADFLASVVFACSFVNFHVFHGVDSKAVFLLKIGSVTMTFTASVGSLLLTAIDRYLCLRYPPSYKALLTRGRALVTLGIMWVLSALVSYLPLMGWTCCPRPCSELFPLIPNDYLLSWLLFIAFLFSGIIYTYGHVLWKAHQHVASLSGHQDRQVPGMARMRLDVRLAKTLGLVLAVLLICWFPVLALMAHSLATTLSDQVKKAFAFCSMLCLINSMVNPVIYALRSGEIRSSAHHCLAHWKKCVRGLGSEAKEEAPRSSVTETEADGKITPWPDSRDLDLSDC
Chain of h-CB2R (P34972 whole entry): as above

Row | SMILES | functional activity at CB2R [2] | Ki(CB1)/Ki(CB2) [3] | other results
1 | CC1CCC(NC(=O)c2cc3cccnc3n(CCN3CCOCC3)c2=O)CC1 (centres unmarked) [A1] | agonists |  | cAMP (CB2R) EC50/IC50 (nM): EC50 [1]: 28.0 nM
2 | CC1CCC(NC(=O)c2cc3cccnc3n(Cc3ccc(F)cc3)c2=O)CC1 (centres unmarked) [A2] | agonists |  | cAMP (CB2R) EC50/IC50 (nM): EC50 [1]: 29.6 nM
3 | CC1CCC(NC(=O)c2cc3cccnc3n(CCO)c2=O)CC1 (centres unmarked) [Compound 3, 1-(2-Hydroxyethyl)-N-(4-methylcyclohexyl)-2-oxo-1,2-dihydro-1,8-naphthyridine-3-carboxamide] |  | >5 | 
4 | CC1CCC(NC(=O)c2cc3cccnc3n(CCCO)c2=O)CC1 (centres unmarked) [Compound 4, 1-(3-Hydroxypropyl)-N-(4-methylcyclohexyl)-2-oxo-1,2-dihydro-1,8-naphthyridine-3-carboxamide] |  | >77 | 
5 | CC1CCC(NC(=O)c2cc3cccnc3n(CCCCO)c2=O)CC1 (centres unmarked) [Compound 5, 1-(4-Hydroxybutyl)-N-(4-methylcyclohexyl)-2-oxo-1,2-dihydro-1,8-naphthyridine-3-carboxamide] | agonists | >187 | solubility under the test conditions [4]: insoluble
6 | CC1CCC(NC(=O)c2cc3cccnc3n(CCCCCO)c2=O)CC1 (centres unmarked) [Compound 6, 1-(5-Hydroxypentyl)-N-(4-methylcyclohexyl)-2-oxo-1,2-dihydro-1,8-naphthyridine-3-carboxamide] |  | >2778 | 
7 | CC1CCC(NC(=O)c2cc3cccnc3n(CCCCCCO)c2=O)CC1 (centres unmarked) [Compound 7, 1-(6-Hydroxyhexyl)-N-(4-methylcyclohexyl)-2-oxo-1,2-dihydro-1,8-naphthyridine-3-carboxamide] |  | >554 | 
8 | CCOC(=O)CCn1c(=O)c(C(=O)NC2CCC(C)CC2)cc2cccnc21 (centres unmarked) [Compound 8, Ethyl 3-(3-(4-Methylcyclohexylcarbamoyl)-2-oxo-1,8-naphthyridin-1(2H)-yl)propanoate] |  | >57 | 
9 | CCOC(=O)CCCn1c(=O)c(C(=O)NC2CCC(C)CC2)cc2cccnc21 (centres unmarked) [Compound 9, Ethyl 4-(3-(4-Methylcyclohexylcarbamoyl)-2-oxo-1,8-naphthyridin-1(2H)-yl)butanoate] |  | >160 | 
10 | COC(=O)CCCCn1c(=O)c(C(=O)NC2CCC(C)CC2)cc2cccnc21 (centres unmarked) [Compound 10, Methyl 5-(3-(4-Methylcyclohexylcarbamoyl)-2-oxo-1,8-naphthyridin-1(2H)-yl)pentanoate] |  | >369 | 
11 | CC1CCC(NC(=O)c2cc3cccnc3n(CCC(=O)O)c2=O)CC1 (centres unmarked) [Compound 11, 3-(3-(4-Methylcyclohexylcarbamoyl)-2-oxo-1,8-naphthyridin-1(2H)-yl)propanoic Acid] |  | >7 | 
12 | CC1CCC(NC(=O)c2cc3cccnc3n(CCCC(=O)O)c2=O)CC1 (centres unmarked) [Compound 12, 4-(3-(4-Methylcyclohexylcarbamoyl)-2-oxo-1,8-naphthyridin-1(2H)-yl)butanoic Acid] |  | >4 | 
13 | CC1CCC(NC(=O)c2cc3cccnc3n(CCCCC(=O)O)c2=O)CC1 (centres unmarked) [Compound 13, 5-(3-(4-Methylcyclohexylcarbamoyl)-2-oxo-1,8-naphthyridin-1(2H)-yl)pentanoic Acid] |  | >7 | 
14 | CC1CCC(NC(=O)c2cc3cccnc3n(CCCCF)c2=O)CC1 (centres unmarked) [Compound 14, 1-(4-Fluorobutyl)-1,2-dihydro-N-(4-methylcyclohexyl)-2-oxo-1,8-naphthyridine-3-carboxamide] | agonists |  | cAMP (CB2R) EC50/IC50 (nM): EC50 [1]: 20.6 nM
15 | CC1CCC(NC(=O)c2cc3cc(Br)cnc3n(Cc3ccc(F)cc3)c2=O)CC1 (centres unmarked) [Compound 17, 6-Bromo-1-(4-fluorobenzyl)-N-(4-methylcyclohexyl)-2-oxo-1,2-dihydro-1,8-naphthyridine-3-carboxamide] | inverse agonists as well as antagonists |  | solubility under the test conditions [4]: insoluble
16 | CC1CCC(NC(=O)c2cc3cc(Br)cnc3n(CCN3CCOCC3)c2=O)CC1 (centres unmarked) [Compound 18, 6-Bromo-N-(4-methylcyclohexyl)-1-(2-morpholinoethyl)-2-oxo-1,2-dihydro-1,8-naphthyridine-3-carboxamide] | inverse agonists as well as antagonists |  | cAMP (CB2R) EC50/IC50 (nM): IC50 ([1]; antagonist mode, inhibition of response to WIN-55,212-2 (30 nM) with forskolin): 59.6 nM
17 | CC1CCC(NC(=O)c2cc3cc(-c4ccc(F)cc4)cnc3n(Cc3ccc(F)cc3)c2=O)CC1 (centres unmarked) [Compound 21, 1-(4-Fluorobenzyl)-6-(4-fluorophenyl)-N-(4-methyl-cyclohexyl)-2-oxo-1,2-dihydro-1,8-naphthyridine-3-carboxamide] |  | >4608 | 
18 | C[C@H]1CC[C@@H](NC(=O)c2cc3cc(-c4ccco4)cnc3n(Cc3ccc(F)cc3)c2=O)CC1 [Compound 22-cis, cis-1-(4-Fluorobenzyl)-6-(furan-2-yl)-N-(4-methylcyclohexyl)-2-oxo-1,2-dihydro-1,8-naphthyridine-3-carboxamide] |  | 15 022 | 
19 | C[C@H]1CC[C@H](NC(=O)c2cc3cc(-c4ccco4)cnc3n(Cc3ccc(F)cc3)c2=O)CC1 [Compound 22-trans, trans-1-(4-Fluorobenzyl)-6-(furan-2-yl)-N-(4-methylcyclohexyl)-2-oxo-1,2-dihydro-1,8-naphthyridine-3-carboxamide] |  | >106 | 
20 | COc1ccc(-c2cnc3c(c2)cc(C(=O)NC2CCC(C)CC2)c(=O)n3CCN2CCOCC2)cc1 (centres unmarked) [Compound 23, 6-(4-Methoxyphenyl)-N-(4-methylcyclohexyl)-1-(2-morpholinoethyl)-2-oxo-1,2-dihydro-1,8-naphthyridine-3-carboxamide] | inverse agonists as well as antagonists | >6802 | solubility under the test conditions [4]: insoluble

— paper PMC4234427 (Journal of Medicinal Chemistry, 2014)
